The test system of one series is MEK1/2. Description: Western blot of phosphorylated MEK1/2 in HaCaT cells. As to conditions: 5 μM. It counts as cell-based, human. As to the method: (§1) Blot transfer was performed onto a PVDF membrane (GE healthcare, Sweden) at 250 mA for 120 min on ice. The blot was blocked with 5% BSA TBST before incubating overnight at 4° C. with anti-P-MEK1/2 rabbit antibody (1:2000 in 5% BSA TBST; Cell Signaling, US), anti-MEK1/2 rabbit antibody (1:2000 in 5% BSA TBST; Cell Signaling, US), anti-P-ERK1/2 rabbit antibody (1:2000 in 5% BSA TBST; Cell Signaling, US), anti-ERK1/2 rabbit antibody (1:2000 in 5% BSA TBST; Cell Signaling, US), and anti-β-actin mouse antibody (1:10000 in 5% BSA TBST; Merck Millipore, US). After incubation, the membrane was washed with TBST at room temperature three times for 10 min each. The blot was then incubated with secondary anti-mouse or anti-rabbit horseradish peroxidase (HRP) (1:5000 in 5% BSA TBST; Cell Signaling, US) and was incubated for another 1 h at room temperature. The blot was washed five times 10 min each with TBST at room temperature before addition of chemiluminescence substrate (Advansta, US) and exposure on X-ray film (Fujifilm, Japan).

Another series concerns c-Jun. The experiment in a line: Gene expression analysis (qPCR) of c-Jun in HaCaT cells. The series is classed as cell-based, human. As to conditions: 2 h treatment. As to the method: Total RNA was extracted from HaCaT and primary human keratinocytes using PureLink™ RNA mini kit (Thermo Fisher Scientific, US). First-strand cDNA was synthesised from 600 ng of total RNA using SuperScript™ II Reverse Transcriptase and Oligo(dT)12-18 (Thermo Fisher Scientific, US) according to the manufacturer's instructions. Quantitative PCR (qPCR) was performed with iTaq Universal SYBR Green Supermix (Bio-Rad, US) on a CFX96 Touch Real-Time PCR Detection System (Bio-Rad, US) for 40 cycles. PCR reaction (20 μL): 3 μL cDNA, 1 μL primer mix (10 μM), 6 μL DEPC-treated water and 10 μL mastermix. […] GAPDH was used as a housekeeping gene for normalization. Fold changes of gene expressions with c-fos and c-Jun were calculated using the 2^−ΔΔCT method.
On the technique in general: Quantitative PCR measures a nucleic acid by following its amplification.

The test system of the next series is ERK1/2. The experiment in a line: Western blot of phosphorylated ERK1/2 in HaCaT cells. It counts as cell-based, human. As to conditions: 5 μM. Here is the method:
as §1

A further series deals with EGFR (Homo sapiens, UniProt P00533). The experiment in a line: Immunoprecipitation / western blot of EGFR tyrosine phosphorylation in HaCaT cells. It counts as cell-based. As to conditions: 5 μM. More on the design: endogenous in cells; host or cells: HaCaT. As to the method: Immunoprecipitation was performed using EGFR (D38B1) rabbit monoclonal antibodies conjugated to magnetic beads (Cell Signaling, US). Briefly, the magnetic beads were washed with PBS three times and 50 μg HaCaT cell lysate was added to each tube and allowed to incubate overnight at 4° C. with rotation. After incubation, the magnetic beads were washed five times with PBS. A 6× loading dye with β-mercaptoethanol was added to the resin and heated for 10 min at 85° C. The resultant mixture was centrifuged at 14000 g×1 min and resolved using 10% SDS-PAGE at a 100 V constant for 120 min. Blot transfer was performed on a PVDF membrane (GE healthcare, Sweden) at 250 mA for 120 min on ice. The blot was blocked with 5% BSA TBST before incubating overnight at 4° C. with anti-phosphotyrosine-HRP (R&D systems, US) or anti-EGFR anti-rabbit antibody (1:1000 in 5% BSA TBST; Cell Signaling, US). After incubation, the membrane was washed with TBST at room temperature for three times at 10 min each. The blot was then incubated with secondary anti-rabbit horseradish peroxidase (HRP) (1:5000 in 5% BSA TBST) and was incubated for another 1 h at room temperature. The blot was washed five times 10 min each with TBST at room temperature before the addition of chemiluminescence substrate (Advansta, US) and exposure on X-ray film (Fujifilm, Japan).

Another series concerns HUVEC-CS cells. The experiment in a line: Endothelial tube formation assay. The series is classed as cell-based. To be noted: data not shown. As to the method:
Endothelial tube formation assay was performed using a μ-slide (ibidi, Germany). Briefly, 10 μL of gel matrix (BD Matrigel™ Basement Membrane Matrix) was casted onto each μ-slide well and left to solidify. […] After incubation for 2 h, the wells were photographed using inverted phase-contrast microscope. Images were analyzed for the numbering of branching points using the Wimasis image analysis platform.

The nature of series [1]: Heat stability (100° C., RP-HPLC). The series is classed as physicochemical. To be noted: 100° C.; read-out: calculated t1/2, heat treatment. As to the method:
Samples were collected at various time points (0, 30, 60, and 120 min).

The test system of another series is HaCaT cells. It counts as cell-based, human. Here is the method:
(§2) HaCaT (human keratinocyte), HUVEC-CS (endothelial cells) cells were cultured in Dulbecco's modification of Eagle's medium (DMEM) supplemented with 10% fetal bovine serum and 100 U/mL of penicillin and streptomycin. Normal Human Epidermal Keratinocytes adult purchased from Lifeline® cell technology were cultured in Lifeline® DermaLife K Medium. They were grown in a 5% CO2 humidified incubator at 37° C. HaCaT cells were stably transfected with pGL4.33[luc2P/SRE/Hygro] (Promega) and selected using 250 μg/mL hygromycin. Stable HaCaT cells expressing SRE luciferase reporter were maintained with 250 μg/mL hygromycin.
(§3) Cell proliferation was determined using crystal violet staining. […] 3417-Da-peptide aB1 is a CRP isolated from Achyranthes bidentata with the amino acid sequence […] (SEQ ID NO:11). Crystal violet staining was performed as previously described. Briefly, after the incubation period, the wells were fixed with 4% buffered paraformaldehyde for 20 min. The cells were then stained with 0.25% crystal violet in 20% methanol for 15 min. The excess crystal violet stain was rinsed with distilled water for 4-5 times and air-dried. Glacial acetic acid (10%) in Milli-Q water was added to extract the crystal violet stain. The absorbance was then measured at 595 nm using a microplate reader (Tecan Infinite® 200 Pro, Switzerland).

For series [2], the system named is serum response element (SRE). The experiment in a line: SRE luciferase reporter assay in stable HaCaT cells. The series is classed as cell-based, human. To be noted: 6 h incubation. Here is the method: as §2
Briefly, the cells were cultured in a white 96-well plates to achieve 90% confluency. […] The luciferase assay was performed using the ONE-Glo EX Luciferase Assay System (Promega, US) as per the manufacturer's instructions. Luminescence was measured using a microplate reader (Tecan Infinite® 200 Pro, Switzerland).

For series [3], the system named is pepsin, trypsin, pronase, human neutrophil elastase. Description: Proteolytic stability against a panel of proteases. As to conditions: human.
Method: (§4) Samples were collected at various time points.
(§5) All collected samples from various stability assays were analyzed by RP-HPLC with a linear gradient of mobile phase A (0.05% TFA/H2O) and mobile phase B (0.05% TFA/ACN) on aeris peptide XB-C18 column (Phenomenex, US). The resulting peaks were collected and identified by MALDI-TOF MS. The results were expressed as percentage of initial concentration using the peak area of the HPLC profile.
Series [4] in a line: Acid stability (0.2 M HCl, 37° C.).
Method: as §4, §5
The test system of series [5] is primary human keratinocytes. The experiment in a line: Primary human keratinocyte proliferation (crystal violet). The series is classed as cell-based. To be noted: 72 h, crystal violet assay. Here is the method:
as §2, §3

The source of these data is patent US20220257706A1, “EPIDERMAL GROWTH FACTOR RECEPTOR (EGFR) LIGANDS” (NANYANG TECHNOLOGICAL UNIVERSITY, priority 2019, published 2022).

A value given as a limit tells only on which side of the number the result lay.

EGFR, sequence (P00533 25-1210): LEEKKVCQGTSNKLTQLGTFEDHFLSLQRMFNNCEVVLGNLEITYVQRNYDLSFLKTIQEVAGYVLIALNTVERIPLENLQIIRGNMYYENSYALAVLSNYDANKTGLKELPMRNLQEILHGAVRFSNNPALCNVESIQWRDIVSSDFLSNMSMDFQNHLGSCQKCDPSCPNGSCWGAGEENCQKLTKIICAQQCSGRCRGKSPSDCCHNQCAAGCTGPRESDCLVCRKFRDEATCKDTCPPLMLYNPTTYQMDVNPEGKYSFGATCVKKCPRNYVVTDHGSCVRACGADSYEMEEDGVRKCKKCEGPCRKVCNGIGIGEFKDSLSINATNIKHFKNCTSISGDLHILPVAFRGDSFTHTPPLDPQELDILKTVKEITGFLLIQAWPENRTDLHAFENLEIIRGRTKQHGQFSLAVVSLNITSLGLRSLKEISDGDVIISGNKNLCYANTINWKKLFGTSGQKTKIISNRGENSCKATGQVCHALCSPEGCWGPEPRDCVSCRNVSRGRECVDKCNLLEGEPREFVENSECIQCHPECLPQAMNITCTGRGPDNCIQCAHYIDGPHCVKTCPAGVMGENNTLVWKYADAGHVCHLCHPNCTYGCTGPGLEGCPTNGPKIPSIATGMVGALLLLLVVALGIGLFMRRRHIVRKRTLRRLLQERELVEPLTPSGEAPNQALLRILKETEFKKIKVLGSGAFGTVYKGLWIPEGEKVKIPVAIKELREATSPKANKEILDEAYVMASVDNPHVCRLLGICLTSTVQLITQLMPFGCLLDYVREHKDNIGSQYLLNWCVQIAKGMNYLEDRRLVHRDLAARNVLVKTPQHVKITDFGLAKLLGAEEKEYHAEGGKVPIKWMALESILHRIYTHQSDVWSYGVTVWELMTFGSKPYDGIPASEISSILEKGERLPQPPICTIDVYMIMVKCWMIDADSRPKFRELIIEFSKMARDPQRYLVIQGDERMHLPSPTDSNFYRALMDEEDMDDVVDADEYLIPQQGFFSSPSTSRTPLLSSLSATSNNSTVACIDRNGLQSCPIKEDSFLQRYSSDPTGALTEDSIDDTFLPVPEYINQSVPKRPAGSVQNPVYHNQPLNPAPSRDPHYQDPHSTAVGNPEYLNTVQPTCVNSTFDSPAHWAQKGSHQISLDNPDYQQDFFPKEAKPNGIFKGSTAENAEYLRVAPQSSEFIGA

The EC50 is the concentration at which the effect is half-maximal. Lower therefore signals a more potent agent. Consider `CC[C@H](C)[C@@H]1NC(=O)[C@H](CCC(=O)O)NC(=O)[C@H]([C@@H](C)O)NC(=O)[C@@H]2CSSC[C@@H]3NC(=O)[C@H](Cc4ccccc4)NC(=O)[C@H](CC(N)=O)NC(=O)[C@H](CO)NC(=O)[C@H](CSSC[C@H](NC(=O)[C@@H](N)CCC(N)=O)C(=O)N[C@@H](CCCCN)C(=O)N4CCC[C@H]4C(=O)N[C@@H](CC(N)=O)C(=O)NCC(=O)N[C@@H](C)C(=O)N[C@@H](CCCCN)C(=O)N2)NC(=O)[C@H](CSSC[C@@H](C(=O)N[C@@H](C)C(=O)N[C@@H](CC(N)=O)C(=O)N[C@@H](CCCNC(=N)N)C(=O)O)NC(=O)[C@H]([C@@H](C)O)NC(=O)CNC(=O)[C@H](CO)NC(=O)[C@H](CCCCN)NC(=O)[C@H](CCC(N)=O)NC(=O)CNC(=O)[C@H](C)NC(=O)[C@H](Cc2ccc(O)cc2)NC(=O)[C@H](CCCNC(=N)N)NC(=O)[C@H](CC(C)C)NC3=O)NC(=O)[C@@H]2CCCN2C(=O)[C@@H]2CCCN2C(=O)[C@H]([C@@H](C)CC)NC(=O)[C@H](CO)NC1=O` [bleogen pB1], for which the “phosphorylation of MEK1/2” value with MEK1/2 was “induces the phosphorylation”. Besides, the “mRNA expression of c-Jun” value in the series with c-Jun is “significantly upregulate”. Moreover, the “phosphorylation of ERK1/2” value in the series with ERK1/2 is given as “induces the phosphorylation”. Also, at EGFR, the “phosphorylation of EGFR” value is recorded as “induces the phosphorylation”. Besides, the “endothelial cell tube formation” value in the series on HUVEC-CS cells is “accelerate”. The half-life at 0.1 M in series [1], in series [3] and in series [4] was > 8.33 h each time. In the series with HaCaT cells, the “proliferative activities on HaCaT cells, native versus synthetic” value is reported as “identical proliferative activities”. The EC50 with HaCaT cells (72 h) was determined as 130 nM. Moreover, the “difference in mitogenic potency between EGF and pB1” value with HaCaT cells (HaCaT cell proliferation EC50) is on record as 100 fold. For the same compound, in the series with HaCaT cells (co-incubation with EGFR neutralizing antibody (clone LA1)), the “EGFR dependence of proliferative/mitogenic effect” value is on record as “EGFR-dependent”. In addition, the SRE-luciferase activity entry in series [2] is on record as “dose-dependently, increases the luciferase activity”. Moreover, the “proliferation of primary human keratinocytes” value in series [5] is “promotes the proliferation”.
